In test [1] the test system is Colletotrichum lagenarium. The conditions noted are these: in vivo. Also: key: 5: clean, no disease; 4: trace of disease; 3: slight disease; 2: moderate disease; 1: severe disease; 0: like controls.
The next test relates to Piricularia oryzae. It is filed as in vivo. Further details: scale not given here. As to conditions: Rice Blast, five days.
The next test deals with Staphylococcus aureus. Format: cell-based. The conditions noted are these: 100 ppm; subcultures 72 hours at 37° C.
Another test deals with Pseudomonas solaracaerum. It is filed as cell-based. As to conditions: 100 ppm, 72 hours at 23° C.
Test [2] has as its system Stemphylium sarcinaeforme. Description: Agar dilution plate. It is filed as cell-based. The conditions noted are these: Ss; 100 ppm, 72 hours at 23° C. Summed up:
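Compound incorporated into Sabouraud's dextrose agar at about 100 ppm, inoculated with Stemphylium sarcinaeforme and incubated about 72 hours at 23 °C. Growth scored 0 (no control) or 5 (100% effectiveness), test run in repeat.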
For orientation: Agar dilution tests growth on a series of plates holding different concentrations.

Another test concerns Phytophthora infestans. Format: in vivo. Further details: scale not given here. The conditions noted are these: Tomato Late Blight, five days.
The subject of test [3] is Collectotrichum lagenarium. Description: Agar dilution plate. Format: cell-based. As to conditions: Cl; 100 ppm, 72 hours at 23° C. Summed up:
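Compounds were incorporated at about 100 ppm in Sabouraud's dextrose agar, inoculated, and incubated about 72 h at 23 °C. Growth was scored 0 (no control) or 5 (100% effectiveness), and the test was repeated twice.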

Another test concerns Aerobacter aerogenes. Format: cell-based. As to conditions: 100 ppm; subcultures 72 hours at 37° C. Also: key: 0: No Effect; 9: Kill of Bacteria; 5: Stasis, but not Kill of all Bacteria.
In test [4] the test system is Monilinia fructicola. As to the kind of experiment: Spore germination inhibition. It is filed as cell-based. The conditions noted are these: for inhibition at 1 ppm / inhibition at 10 ppm: 24 hours; for inhibition at 100 ppm: 24 h, read-out: % Inhibition of Spore Germination. Summed up: (§1)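 Test compounds were suspended in water at 100, 10 or 1 ppm and inoculated with spore suspensions from 7-day (A. niger) or 14-day potato-dextrose agar cultures. Vials were tumbled for 24 hours and then examined for inhibition of mycelial growth.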

Test [5] concerns Stemphylium sarcinaeforme. Description: Spore germination inhibition. It is filed as cell-based. The conditions noted are these: Stemphylium sarciniforme; for inhibition at 100 ppm: 24 h, read-out: % Inhibition of Spore Germination; for inhibition at 1 ppm / inhibition at 10 ppm: 24 hours. The method in brief: as §1
The subject of test [6] is Aspergillus niger. Description: Spore germination inhibition. Format: cell-based. As to conditions: 24 hours. Summed up: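 Test compound is suspended in water at 100, 10 or 1 ppm. and dispensed into one dram "opticlear" vials. Each vial receives one drop of a spore suspension taken from seven-day Aspergillus niger cultures grown on potato-dextrose agar. Capped vials rotate on a tumbler for 24 hours, then are inspected for inhibition of mycelial growth.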

A further test concerns Rhizoctonia solani. As to the kind of experiment: Agar dilution plate. Format: cell-based. As to conditions: Rs; 100 ppm, 72 hours at 23° C. The method in brief: (§2)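 Sabouraud's dextrose agar, ~100 ppm test compound; inoculate, incubate ~72 h at 23° C; score growth 0–5 (0 = no control, 5 = 100% effectiveness); test repeated twice.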
Another test relates to Fusarium lycopersici. Description: Agar dilution plate. The conditions noted are these: Fl; 100 ppm, 72 hours at 23° C. Format: cell-based. The method in brief: as §2
In test [7] the test system is Monilinia fructicola. Description: Agar dilution plate. It is filed as cell-based. As to conditions: Mf; 100 ppm, 72 hours at 23° C. The method in brief:
as §2

Test [8] concerns Aspergillus niger. Description: Agar dilution plate. It is filed as cell-based. As to conditions: An; 100 ppm, 72 hours at 23° C. The method in brief: as §2
Another test concerns Pythium de Baryanum. As to the kind of experiment: Agar dilution plate. Format: cell-based. The conditions noted are these: Pd; 100 ppm, 72 hours at 23° C. The method in brief:
as §2

The next test deals with Venturia inaequalis. The conditions noted are these: in vivo.
A further test relates to Verticillium albo-atrum. As to the kind of experiment: Agar dilution plate. Format: cell-based. The conditions noted are these: Va; 100 ppm, 72 hours at 23° C. Summed up: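 Compounds incorporated at about 100 ppm into Sabouraud's dextrose agar, then inoculated with the fungus and incubated about 72 hours at 23° C. Growth scored as 0 (no control) or 5 (100% effectiveness); test repeated twice.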

In the next test the test system is Xanthomonas vesicatoria. It is filed as cell-based. The conditions noted are these: 100 ppm; subcultures 72 hours at 37° C. Also: key: 0: No Effect; 9: Kill of Bacteria; 5: Stasis, but not Kill of all Bacteria.

Where “and” joins values, the source holds several entries; their conditions need not be identical. Identical values can stand only once. Like-named read-outs stand apart in the source and are kept apart here.
For Antibacterial Activity rating in this document: key: 0: No Effect; 9: Kill of Bacteria; 5: Stasis, but not Kill of all Bacteria.

`O=[N+]([O-])CC(SC(=S)N1CCCC1)c1ccccc1` (stereo not drawn) [Example 15, α-(Nitromethyl)benzyl 1-pyrrolidinecarbodithioate]: the results for the disease control index (in test [1]; in the test on Piricularia oryzae (150 ppm); with Piricularia oryzae (300 ppm)) were 5, 4 and 4, respectively.

The term inhibition denotes how much of the control response was suppressed. `COc1ccc(C(C[N+](=O)[O-])SC(=S)N(C)C)cc1OC` (stereo not drawn) [Example 25, 3,4-Dimethoxy-α-(nitromethyl)benzyl Dimethyldithiocarbamate]: the “Antibacterial Activity rating” value with Staphylococcus aureus, in the test on Aerobacter aerogenes and in the test on Xanthomonas vesicatoria was 5 in each case. For the same compound, the “Agar Dilution Plate rating” value is reported as 0 in the test on Pseudomonas solaracaerum; 5 (100% effectiveness of the test compound against the specified organism) in [2]; 5 (100% effectiveness of the test compound against the specified organism) in [3]; 0 in the test with Rhizoctonia solani; 0 in the test with Fusarium lycopersici; 5 (100% effectiveness of the test compound against the specified organism) in the test with Monilinia fructicola [7]. The “Agar Dilution Plate rating” value was 0 with Aspergillus niger [8], 5 (100% effectiveness of the test compound against the specified organism) in the test with Pythium de Baryanum and 5 (100% effectiveness of the test compound against the specified organism) in the test on Verticillium albo-atrum. Besides, the disease control index is reported as 5 in the test on Phytophthora infestans (150 ppm); 5 with Phytophthora infestans (300 ppm); 5 in the test on Phytophthora infestans (600 ppm); 5 with Phytophthora infestans (1200 ppm); 5 in the test on Venturia inaequalis; 3 with Piricularia oryzae (150 ppm). Further, the results for the disease control index in the test with Piricularia oryzae (300 ppm), in the test with Piricularia oryzae (600 ppm) and with Piricularia oryzae (1200 ppm) were 4, 5 and 4, respectively. Besides, the inhibition at 1 ppm with Monilinia fructicola [4] turned out to be 0%; in test [5], 100%; with Aspergillus niger [6], 0%. The inhibition at 10 ppm (with Monilinia fructicola [4]; in test [5]; in the test on Aspergillus niger [6]) was 100% each time. For the same compound, the inhibition at 100 ppm (in the test with Monilinia fructicola [4]; in test [5]; with Aspergillus niger [6]) was 100% throughout.

As for `CN(C)C(=S)SC(C[N+](=O)[O-])c1ccccc1Cl` (stereo not drawn) [Example 27, o-Chloro-α-(nitromethyl)benzyl Dimethyldithiocarbamate], the “Antibacterial Activity rating” value with Staphylococcus aureus stood at 5; in the test on Aerobacter aerogenes it was 9; in the test with Xanthomonas vesicatoria, 5. Moreover, the “Agar Dilution Plate rating” value in the test on Pseudomonas solaracaerum is reported as 0; in test [2], 5 (100% effectiveness of the test compound against the specified organism); in test [3], 5 (100% effectiveness of the test compound against the specified organism); with Rhizoctonia solani, 0; with Fusarium lycopersici, 5 (100% effectiveness of the test compound against the specified organism); in the test on Monilinia fructicola [7], 5 (100% effectiveness of the test compound against the specified organism). Also, the entries for the “Agar Dilution Plate rating” value with Aspergillus niger [8], in the test on Pythium de Baryanum and in the test with Verticillium albo-atrum were 0, 5 (100% effectiveness of the test compound against the specified organism) and 5 (100% effectiveness of the test compound against the specified organism), respectively. Moreover, the disease control index with Phytophthora infestans (150 ppm) is 2; in the test on Phytophthora infestans (300 ppm), 2; with Phytophthora infestans (600 ppm) it was 4; with Phytophthora infestans (1200 ppm) it was 4; with Venturia inaequalis it was 5 and 0; in the test with Piricularia oryzae (150 ppm) it was 2. Besides, the disease control index with Piricularia oryzae (300 ppm), with Piricularia oryzae (600 ppm) and with Piricularia oryzae (1200 ppm) was 4 throughout. In addition, the figures for the inhibition at 1 ppm (in the test with Monilinia fructicola [4]; in [5]; in the test on Aspergillus niger [6]) were 0%, 100% and 0%, respectively. The inhibition at 10 ppm (in the test on Monilinia fructicola [4]; in test [5]; in the test with Aspergillus niger [6]) was 100% in each case. The inhibition at 100 ppm (in the test on Monilinia fructicola [4]; in test [5]; in the test on Aspergillus niger [6]) was 100% throughout.

Take `CN(C)C(=S)SC(C[N+](=O)[O-])c1ccc(Br)cc1` (stereo not drawn) [Example 30, p-Bromo-α-(nitromethyl)benzyl Dimethyldithiocarbamate]: the “Antibacterial Activity rating” value was 5 in the test on Staphylococcus aureus, 0 with Aerobacter aerogenes and 0 in the test on Xanthomonas vesicatoria. Further, the “Agar Dilution Plate rating” value was 0 in the test on Pseudomonas solaracaerum; 0 in [2]; 5 (100% effectiveness of the test compound against the specified organism) in test [3]; 5 (100% effectiveness of the test compound against the specified organism) with Rhizoctonia solani; 0 in the test with Fusarium lycopersici; 5 (100% effectiveness of the test compound against the specified organism) with Monilinia fructicola [7]. In addition, the “Agar Dilution Plate rating” value is listed as 0 in the test on Aspergillus niger [8], 5 (100% effectiveness of the test compound against the specified organism) with Pythium de Baryanum and 0 with Verticillium albo-atrum. Besides, the disease control index was determined as 2 with Phytophthora infestans (150 ppm); 3 in the test with Phytophthora infestans (300 ppm); 3 in the test on Phytophthora infestans (600 ppm); 4 in the test with Phytophthora infestans (1200 ppm); 5 with Venturia inaequalis; 5 with Piricularia oryzae (150 ppm). Also, the disease control index in the test with Piricularia oryzae (300 ppm), in the test on Piricularia oryzae (600 ppm) and in the test on Piricularia oryzae (1200 ppm) was 5 each time. The inhibition at 1 ppm is 100% with Monilinia fructicola [4], 0% in test [5] and 0% with Aspergillus niger [6]. The inhibition at 10 ppm (with Monilinia fructicola [4]; in [5]; in the test with Aspergillus niger [6]) was 100% each time. Also, the inhibition at 100 ppm (in the test with Monilinia fructicola [4]; in test [5]; in the test with Aspergillus niger [6]) was 100% each time.

For `CN(C)C(=S)SC(C[N+](=O)[O-])c1cccs1` (stereo not drawn) [Example 33, α-(Nitromethyl)-2-thenyl Dimethyldithiocarbamate], the “Antibacterial Activity rating” value turned out to be 5 in the test with Staphylococcus aureus, 0 with Aerobacter aerogenes and 0 in the test with Xanthomonas vesicatoria. In addition, the “Agar Dilution Plate rating” value is 0 in the test on Pseudomonas solaracaerum; 5 (100% effectiveness of the test compound against the specified organism) in test [2]; 5 (100% effectiveness of the test compound against the specified organism) in test [3]; 0 in the test on Rhizoctonia solani; 0 in the test with Fusarium lycopersici; 5 (100% effectiveness of the test compound against the specified organism) with Monilinia fructicola [7]. For the same compound, the “Agar Dilution Plate rating” value with Aspergillus niger [8], with Pythium de Baryanum and in the test with Verticillium albo-atrum was 0 throughout. Also, the disease control index in the test with Phytophthora infestans (150 ppm), in the test on Phytophthora infestans (300 ppm), in the test with Venturia inaequalis, with Piricularia oryzae (150 ppm) and in the test with Piricularia oryzae (300 ppm) was 5 throughout. Also, the inhibition at 1 ppm worked out at 100% in the test with Monilinia fructicola [4], 100% in test [5] and 0% with Aspergillus niger [6]. In addition, the inhibition at 10 ppm (in the test on Monilinia fructicola [4]; in [5]; in the test with Aspergillus niger [6]) was 100% in each case. Further, the inhibition at 100 ppm (with Monilinia fructicola [4]; in test [5]; with Aspergillus niger [6]) was 100% in each case.

These data come from patent US4148795A, “Dithiocarbamate ester bactericides and fungicides” (American Cyanamid Company, priority 1976, dated 1979).
